The numbers were not newly measured in US11452734B2, “Method of treating and preventing secondary hyperparathyroidism” (OPKO IRELAND GLOBAL HOLDINGS, LTD., priority 2006, dated 2022), which cites them from elsewhere.

The target in this data set is T1, Vitamin D receptors (VDR) (Homo sapiens, UniProt P11473).
T1 sequence (P11473 1-427): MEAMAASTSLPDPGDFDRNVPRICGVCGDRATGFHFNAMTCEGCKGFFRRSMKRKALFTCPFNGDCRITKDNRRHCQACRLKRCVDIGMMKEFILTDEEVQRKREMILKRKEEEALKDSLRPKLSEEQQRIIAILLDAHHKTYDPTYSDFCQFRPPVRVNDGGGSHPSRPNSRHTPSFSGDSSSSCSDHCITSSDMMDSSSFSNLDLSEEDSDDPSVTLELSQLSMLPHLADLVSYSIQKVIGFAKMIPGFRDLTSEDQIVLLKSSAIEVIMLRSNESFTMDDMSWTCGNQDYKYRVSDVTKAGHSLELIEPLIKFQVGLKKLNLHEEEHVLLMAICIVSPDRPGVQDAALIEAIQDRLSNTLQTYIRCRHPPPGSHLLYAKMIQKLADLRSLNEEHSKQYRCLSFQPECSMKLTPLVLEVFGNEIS

Consider `C=C1/C(=C\C=C2/CCC[C@]3(C)[C@@H]([C@H](C)/C=C/[C@@](C)(O)C(C)C)CC[C@@H]23)C[C@@H](O)C[C@@H]1O` [1α,24(S)-dihydroxyvitamin D2], for which the “affinities for the VDR, compared among the three Vitamin D hormones” value is on record as “nearly identical”. For the molecule `C=C1/C(=C\C=C2/CCC[C@]3(C)[C@@H]([C@H](C)/C=C/[C@H](C)C(C)(C)O)CC[C@@H]23)C[C@@H](O)C[C@@H]1O` [1α,25-dihydroxyvitamin D2], the “affinities for the VDR, compared among the three Vitamin D hormones” value was “nearly identical”.
